Laboratory results: patent publication US10213415B2, “Compounds as opioid receptor modulators” (JANSSEN PHARMACEUTICA NV, priority 2004, dated 2019)
Like-named read-outs stand apart in the source and are kept apart here.

Columns and labels:
[1] = target: T1, human delta subtype 2 opioid receptor (Homo sapiens, UniProt P41143); test: Human Delta Opioid Receptor Binding Assay (CHO membranes, 3H-Naltrindole); conditions: read-out: hKi δ
T1 construct: purchased Perkin Elmer RBHODM400UA; host or cells: Chinese Hamster Ovary cells (recombinant expression)
Procedure, shortened: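 Filtration binding on CHO-cell membranes expressing the human receptor, in 50 mM Tris pH 7.5 with 5 mM MgCl2, 30 min at room temperature; 3H-naltrindole diluted to 6 nM before mixing 1:1 with compound. Nonspecific binding defined with 1 μM unlabelled naltrindole; inhibition relative to no-inhibitor wells.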

[2] = target: T2, delta opioid receptor (CHO-hδ cell membranes) (Homo sapiens, UniProt P41143); test: Delta Opioid Receptor Functional Assay: [35S]GTPγS Binding in CHO-hδ Cell Membranes, Version 1; format: biochemical; conditions: read-out: DOR GTP-binding Assay_v1 EC50
T2 construct: purchased Receptor Biology, Inc. (Baltimore, Md.); host or cells: CHO cells (recombinant expression)
Description: CHO-hδ cell membranes were purchased from Receptor Biology, Inc. (Baltimore, Md.). 10 mg/ml of membrane protein suspended in 10 mM TRIS-HC pH 7.2, 2 mM EDTA, 10% sucrose.
(§1) Membranes were maintained at 4-8° C. A portion (1 ml) of membranes was added into 15 mL cold binding assay buffer. The assay buffer contained 50 mM HEPES, pH 7.6, 5 mM MgCl2, 100 mM NaCl, 1 mM DTT and 1 mM EDTA. The membrane suspension was homogenized with a Polytron for 2 times and centrifuged at 3000 rpm for 10 min. The supernent was then centrifuged at 18,000 rpm for 20 min. The pellet was saved in a tube and 10 ml assay buffer was added into the tube. The pellet and buffer were mixed with a Polytron.
The pellet membranes (20 μg/ml) were preincubated with SPA (10 mg/ml) at 25° C. for 45 min in the assay buffer. The SPA (5 mg/ml) coupled with membranes (10 μg/ml) was then incubated with 0.5 nM [^35S]GTPγS in the same HEPES buffer containing 50 μM GDP in total volume of 200 μl. Increasing concentrations of receptor agonists were used to stimulate [^35S]GTPγS binding. The basal binding was tested in the absent agonists and no specific binding was tested in the present 10 μM unlabeled GTPγS. The data were analyzed on a Top counter.
Data The % of Basal=(stimulate−non specific)*100/(basal−non specific). EC50 values were calculated using a Prism program.

[3] = target: T3, mu opioid receptor (CHO-hMOR cell membranes) (Homo sapiens, UniProt P35372); test: Mu Opioid Receptor Functional Assay: [35S]GTPγS Binding in CHO-hMOR Cell Membranes, Versions 1 and 2; format: biochemical; conditions: for MOR GTP binding assay_v1 (% I): version 1, % inhibition of agonist-stimulated GTPγS binding; for MOR GTP assay_v1 % of Basal: version 1, basal binding = 100%
T3 construct: purchased Receptor Biology, Inc. (Baltimore, Md.); host or cells: CHO cells (recombinant expression)
Procedure, shortened: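 CHO-hMOR membranes (10 μg/ml) on WGA SPA beads, preincubated 45 min at 25 °C, then incubated with 0.5 nM [35S]GTPγS in HEPES pH 7.6, 5 mM MgCl2, 100 mM NaCl, 1 mM DTT, 1 mM EDTA. Non-specific binding with 10 μM unlabeled GTPγS; agonist EC50 from concentration-response, antagonism as inhibition of 1 μM SNC80-stimulated binding.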

delta opioid receptor = target: T4, delta opioid receptor (Rattus norvegicus, UniProt P33533); test: Rat Brain Delta Opioid Receptor Binding Assay ([3H]DPDPE); conditions: rat forebrain membranes, margin of error 10-20%, read-out: r Ki δ
T4 construct: from tissue; host or cells: forebrain of male Wistar rats
Procedure, shortened: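 Rat (male Wistar) forebrain membranes in 50 mM Tris-HCl pH 7.4 with 5 mM MgCl2, incubated with ~4 nM [3H]DPDPE for 2.5 h at 25 °C. Bound ligand collected by filtration and scintillation counting. Single-concentration data given as % inhibition of specific binding; concentration series fitted to Ki.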

mu opioid receptor = target: T5, mu opioid receptor (Rattus norvegicus, UniProt P33535); test: Rat Brain Mu Opioid Receptor Binding Assay (and Version 2a, [3H]DAMGO); conditions: rat forebrain membranes, margin of error 10-20%, read-out: r Ki μ
T5 construct: from tissue; host or cells: forebrain of male Wistar rats
Procedure, shortened: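 Rat forebrain membranes from male Wistar rats in 50 mM Tris-HCl pH 7.4 with 5 mM MgCl2 incubated with 0.8 nM [3H]DAMGO for 2.5 h at 25° C., then filtered and counted. Data given as % inhibition of specific binding at single concentrations or as Ki from concentration series.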

[4] = test system: novel environment-stressed mice; test: In Vivo Assay-Stress-Induced Fecal Output (Fecal Output for 1 hr); parameters: species or system mouse; conditions: 1 hr; for Fecal Output (# pellets) cpd: novel environment-stressed mice; for response vs control in vivo at 10 mg/kg / response vs control in vivo at 30 mg/kg: Mus musculus, po, 1 h
Procedure, shortened: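 Adult male Crl:CD-1(ICR) mice (˜30-35 g; at least 10 per dose group) were split into acclimated non-stressed controls, held individually for 16-18 hr in wire-mesh-bottom cages, and non-acclimated stressed groups. Mice were dosed intragastrically with vehicle or test compound in 0.5% methylcellulose, housed individually in novel cages over absorbent cardboard, and fecal pellets per mouse were counted hourly.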

human mu opioid receptor = target: T6, human mu opioid receptor (Homo sapiens, UniProt P35372); test: Human Mu Opioid Receptor Binding Assay (CHO membranes, 3H-Damgo); conditions: read-out: hKi μ
T6 construct: purchased Perkin Elmer RBHOMM400UA; host or cells: Chinese Hamster Ovary cells (recombinant expression)
Procedure, shortened: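 Membranes from CHO cells expressing human mu opioid receptor, 300 μg/mL, in 50 mM Tris pH 7.5, 5 mM MgCl2. Incubated with compound and ³H-Damgo (3.6 nM before mixing) for 2 h at room temperature, filtered, counted by scintillation. Nonspecific binding with 1 μM unlabelled Damgo.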

[5] = target: T7, delta opioid receptor (NG108-15 cell membranes) (Mus musculus, UniProt P32300); test: Delta Opioid Receptor Functional Assay: [35S]GTPγS Binding in NG108-15 Cell Membranes, Version 2; format: biochemical; conditions: NG108-15 cell membranes, version 2
T7 construct: NG108-15 cell membranes were purchased from Applied Cell Sciences (Rockville, Md.); host or cells: NG108-15 cells (membranes purchased)
Description: NG108-15 cell membranes were purchased from Applied Cell Sciences (Rockville, Md.). 8 mg/ml of membrane protein suspended in 10 mM TRIS-HC pH 7.2, 2 mM EDTA, 10% sucrose.
as §1, with “10 ml” for “15 mL”, “Tris,” for “HEPES,”, “EGTA.” for “EDTA.”
The pellet membranes (75 μg/ml) were preincubated with SPA (10 mg/ml) at 25° C. for 45 min in the assay buffer. The SPA (5 mg/ml) coupled with membranes (37.5 μg/ml) was then incubated with 0.1 nM [^35S] GTPγS in the same Tris buffer containing 100 μM GDP in total volume of 200 μl. Increasing concentrations of receptor agonists were used to stimulate [^35S] GTPγS binding. The basal binding was tested in the absent agonists and no specific binding was tested in the present 10 μM unlabeled GTPγS. The data were analyzed on a Top counter.
[formula] % Inhibition=(% stimulation by 1 μM SNC80−% stimulation by 1 μM SNC80 in presence of test compound)×100/(% Stimulation by 1 μM SNC80−100) % of Basal=(stimulate−non specific)*100/(basal−non specific). EC50 values were calculated using GraphPad Prism.

male CD-1 mice = test: In Vivo Assay: Upper GI Tract Transit (MUGIT); conditions: Mus musculus, po, 1 h, dose 30 (mg), p.o., read-out: upper GI transit (% ctrl)
Description: Methods: The animals used in these studies were male CD-1 mice, ave. wt. ˜30 g. Mice were housed under 12 h/12 h light/dark cycle, food & water ad lib. On the day of the experiment mice were assigned to experimental groups, including one vehicle-only group (=control). At 30 min before administration of carmine dye, animals were dosed with vehicle or vehicle-plus-compound, mice were returned to their home cages after drug administration. After administration of carmine, the animals were either returned to their home cages (non-stressed) or individually placed in the same metal cages as used in the fecal output or entire GI tract transit to induce a novel environment stress. One hour after administration of carmine, mice were sacrificed by cervical dislocation, the abdomen opened midventrally, the small intestine from pylorus to cecum was removed, the mesentery divided in order to lay the intestine straight & flat—without stretching. The total length of intestine and the length of carmine-dyed intestine were measured in order to determine the percent of the upper GI tract over which transit had occurred as follows: {(Length of carmine-dyed intestine)/(Total length of intestine)}×100=% upper GI transit. The data expressed were group means±SD (or s.e.m.) and data expressed as % of control.

T2 sequence (P41143 whole entry): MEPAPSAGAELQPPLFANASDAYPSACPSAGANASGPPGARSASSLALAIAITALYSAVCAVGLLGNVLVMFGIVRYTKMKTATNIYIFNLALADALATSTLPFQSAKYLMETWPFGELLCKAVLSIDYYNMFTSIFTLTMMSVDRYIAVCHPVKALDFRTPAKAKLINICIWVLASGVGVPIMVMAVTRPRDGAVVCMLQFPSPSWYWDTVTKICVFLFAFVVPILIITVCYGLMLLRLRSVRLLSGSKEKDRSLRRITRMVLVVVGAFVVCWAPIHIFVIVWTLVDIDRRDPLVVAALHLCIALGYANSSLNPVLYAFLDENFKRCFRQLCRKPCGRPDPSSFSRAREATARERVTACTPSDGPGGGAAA
T1 sequence (P41143 whole entry): as above
T5 sequence (P33535 whole entry): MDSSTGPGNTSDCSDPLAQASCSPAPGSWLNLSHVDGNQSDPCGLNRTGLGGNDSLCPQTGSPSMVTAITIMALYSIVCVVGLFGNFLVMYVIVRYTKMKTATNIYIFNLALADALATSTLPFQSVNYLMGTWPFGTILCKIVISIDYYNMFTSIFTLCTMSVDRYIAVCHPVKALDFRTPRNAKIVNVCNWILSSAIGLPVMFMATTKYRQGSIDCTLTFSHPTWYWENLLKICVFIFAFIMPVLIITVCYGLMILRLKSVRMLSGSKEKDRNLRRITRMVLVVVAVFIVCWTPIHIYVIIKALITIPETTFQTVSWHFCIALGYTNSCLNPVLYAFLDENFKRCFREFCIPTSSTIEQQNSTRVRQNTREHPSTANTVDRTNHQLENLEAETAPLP
T3 sequence (P35372 whole entry): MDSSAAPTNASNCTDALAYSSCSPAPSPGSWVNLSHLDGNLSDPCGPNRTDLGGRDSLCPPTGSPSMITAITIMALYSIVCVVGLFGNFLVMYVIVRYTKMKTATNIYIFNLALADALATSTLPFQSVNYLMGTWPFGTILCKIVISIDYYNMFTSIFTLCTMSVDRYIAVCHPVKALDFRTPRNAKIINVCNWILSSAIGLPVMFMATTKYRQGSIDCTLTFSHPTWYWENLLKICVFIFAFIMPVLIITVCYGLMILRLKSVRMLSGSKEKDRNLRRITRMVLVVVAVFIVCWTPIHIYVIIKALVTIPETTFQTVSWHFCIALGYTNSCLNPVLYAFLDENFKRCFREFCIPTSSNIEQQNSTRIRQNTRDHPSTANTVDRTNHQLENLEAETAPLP
T6 sequence (P35372 whole entry): as above
T4 sequence (P33533 whole entry): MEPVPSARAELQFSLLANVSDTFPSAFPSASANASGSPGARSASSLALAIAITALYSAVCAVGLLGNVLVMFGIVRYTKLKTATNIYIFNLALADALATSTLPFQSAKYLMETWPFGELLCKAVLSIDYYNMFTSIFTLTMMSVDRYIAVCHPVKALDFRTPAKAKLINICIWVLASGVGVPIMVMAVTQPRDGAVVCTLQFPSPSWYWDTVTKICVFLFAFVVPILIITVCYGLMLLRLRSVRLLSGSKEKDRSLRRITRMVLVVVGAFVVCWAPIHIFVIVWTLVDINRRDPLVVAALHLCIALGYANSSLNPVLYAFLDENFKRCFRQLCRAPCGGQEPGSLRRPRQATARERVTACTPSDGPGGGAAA
T7 sequence (P32300 whole entry): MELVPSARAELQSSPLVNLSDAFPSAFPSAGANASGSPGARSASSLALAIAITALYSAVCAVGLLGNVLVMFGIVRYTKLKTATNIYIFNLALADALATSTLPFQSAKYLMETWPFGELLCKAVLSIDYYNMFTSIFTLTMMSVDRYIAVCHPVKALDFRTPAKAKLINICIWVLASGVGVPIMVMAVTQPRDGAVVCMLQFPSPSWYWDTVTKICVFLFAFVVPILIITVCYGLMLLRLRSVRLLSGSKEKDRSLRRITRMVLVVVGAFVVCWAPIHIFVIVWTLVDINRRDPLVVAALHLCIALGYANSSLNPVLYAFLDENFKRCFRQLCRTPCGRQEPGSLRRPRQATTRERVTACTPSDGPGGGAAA

SMILES | Ki [1] | EC50 [2] | MOR GTP binding assay_v1 (% I) [3] | MOR GTP assay_v1 % of Basal [3] | other results
Cc1cc(O)cc(C)c1C[C@H](N)C(=O)N(Cc1nc(-c2ccsc2)c(C)[nH]1)C(C)C [Cpd 146] | 71 nM | 27 nM | 2.79% | 740.77% | 
CCN(C(=O)[C@@H](N)Cc1c(C)cc(O)cc1C)[C@H](c1nc(-c2ccccc2)c[nH]1)C(C)C [Cpd 170] |  | 115 nM | 26.00% |  | Ki (delta opioid receptor): 32.6 nM; Ki (mu opioid receptor): 0.48 nM
Cc1cc(O)cc(C)c1C[C@H](N)C(=O)N(Cc1nc(-c2ccc(C(F)(F)F)cc2)c(C)[nH]1)C(C)C [Cpd 149] | 408 nM | 44 nM | 1.00% | 753.53% | 
Cc1cc(C(N)=O)cc(C)c1C[C@H](N)C(=O)N(C)[C@@H](C)c1nc(-c2ccccc2)c[nH]1 [Cpd 196] |  | 24 nM | 1.00% | 620.00% | Fecal Output (# pellets) cpd ([4]; 10 mg/kg oral): 9.2 pellets; Fecal Output (# pellets) cpd ([4]; 30 mg/kg oral): 4.3 pellets; response vs control in vivo at 10 mg/kg ([4]; 10 mg/kg oral, relative to acclimated control, read-out: Fecal Output cpd % control): 249%; response vs control in vivo at 10 mg/kg ([4]; 10 mg/kg oral, relative to novel environment stress (NES) vehicle group, read-out: Fecal Output cpd % NES): 65.7%; response vs control in vivo at 30 mg/kg ([4]; 30 mg/kg oral, relative to acclimated control, read-out: Fecal Output cpd % control): 391%; response vs control in vivo at 30 mg/kg ([4]; 30 mg/kg oral, relative to novel environment stress (NES) vehicle group, read-out: Fecal Output cpd % NES): 45.3%
Cc1cc(O)cc(C)c1C[C@H](N)C(=O)N(Cc1nc(-c2cncnc2)c(C)[nH]1)C(C)C [Cpd 131] | 675 nM | 99 nM | 28.64% | 391.98% | Ki (human mu opioid receptor): 3.1 nM
Cc1cc(O)cc(C)c1C[C@H](N)C(=O)N(Cc1nc(-c2ccc3ccccc3c2)c(C)[nH]1)C(C)C [Cpd 150] | 992 nM | 49 nM | 53.35% | 476.63% | 
C[C@@H](c1nc(-c2ccccc2)c[nH]1)N(C)C(=O)[C@@H](N)Cc1ccc(C(N)=O)cc1 [Cpd 202] |  | 1580 nM | 1.00% | 529.00% | Ki (delta opioid receptor): 31.5 nM; Ki (mu opioid receptor): 5.9 nM
Cc1cc(O)cc(C)c1C[C@H](N)C(=O)N(Cc1nc(-c2ccccc2Cl)c(C)[nH]1)C(C)C [Cpd 155] | 345 nM | 150 nM | 14.32% | 655.93% | 
Cc1cc(O)cc(C)c1C[C@H](N)C(=O)N(Cc1nc(-c2ccc(Cl)cc2)c(C)[nH]1)C(C)C [Cpd 147] | 241 nM | 51 nM | 1.00% | 779.35% | 
Cc1cc(O)cc(C)c1C[C@H](N)C(=O)N(Cc1nc(-c2ccccc2C(F)(F)F)c(C)[nH]1)C(C)C [Cpd 151] | 1300 nM | 350 nM | 24.19% | 606.38% | 
Cc1cc(O)cc(C)c1C[C@H](N)C(=O)N(Cc1nc(-c2cccc(CO)c2)c(C)[nH]1)C(C)C [Cpd 130] | 712 nM | 16 nM | 1.62% | 866.39% | Ki (human mu opioid receptor): 1.6 nM
Cc1cc(O)cc(C)c1C[C@H](N)C(=O)N(C)[C@@H](CC(C)C)c1nc(-c2ccccc2)c[nH]1 [Cpd 174] |  | 20 nM | 42.00% | 864.00% | 
Cc1cc(O)cc(C)c1C[C@H](N)C(=O)N(Cc1ccc(C(=O)O)o1)[C@@H](C)c1nc(-c2ccccc2)c[nH]1 [Cpd 287] |  |  |  |  | Ki (delta opioid receptor): 0.14 nM; Ki (mu opioid receptor): 0.13 nM; EC50 ([5]; [35S]GTPγS, read-out: DOR GTP-binding Assay_v2_ EC50): > 10000 nM; DOR GTP-binding Assay v2 (% I) ([5]; % inhibition of agonist-stimulated GTPγS binding): 84.50%; response vs control in vivo at 30 mg (male CD-1 mice): 66.4%
Cc1cc(O)cc(C)c1C[C@H](N)C(=O)N(Cc1nc(-c2ccccc2F)c(C)[nH]1)C(C)C [Cpd 117] | 118 nM | 37 nM | 3.31% | 816.16% | Ki (human mu opioid receptor): 0.24 nM
CCN(C(=O)[C@@H](N)Cc1c(C)cc(C(N)=O)cc1C)[C@@H](C)c1nc(-c2ccccc2)c[nH]1 [Cpd 197] |  | 140 nM | 1.00% | 582.00% | Ki (delta opioid receptor): 4.27 nM; Ki (mu opioid receptor): 0.9 nM
